{"source": "paper PMC7287031", "about": "(Pharmacology Research & Perspectives, 2020)", "molecules": {"B1": {"name": "CYP3A5 (Homo sapiens) (protein)", "chain": "MDLIPNLAVETWLLLAVSLVLLYLYGTRTHGLFKRLGIPGPTPLPLLGNVLSYRQGLWKFDTECYKKYGKMWGTYEGQLPVLAITDPDVIRTVLVKECYSVFTNRRSLGPVGFMKSAISLAEDEEWKRIRSLLSPTFTSGKLKEMFPIIAQYGDVLVRNLRREAEKGKPVTLKDIFGAYSMDVITGTSFGVNIDSLNNPQDPFVESTKKFLKFGFLDPLFLSIILFPFLTPVFEALNVSLFPKDTINFLSKSVNRMKKSRLNDKQKHRLDFLQLMIDSQNSKETESHKALSDLELAAQSIIFIFAGYETTSSVLSFTLYELATHPDVQQKLQKEIDAVLPNKAPPTYDAVVQMEYLDMVVNETLRLFPVAIRLERTCKKDVEINGVFIPKGSMVVIPTYALHHDPKYWTEPEEFRPERFSKKKDSIDPYIYTPFGTGPRNCIGMRFALMNMKLALIRVLQNFSFKPCKETQIPLKLDTQGLLQPEKPIVLKVDSRDGTLSGE", "notes": "purchased BD Biosciences"}, "B2": {"name": "CYP1A2 (Homo sapiens) (protein)", "chain": "MALSQSVPFSATELLLASAIFCLVFWVLKGLRPRVPKGLKSPPEPWGWPLLGHVLTLGKNPHLALSRMSQRYGDVLQIRIGSTPVLVLSRLDTIRQALVRQGDDFKGRPDLYTSTLITDGQSLTFSTDSGPVWAARRRLAQNALNTFSIASDPASSSSCYLEEHVSKEAKALISRLQELMAGPGHFDPYNQVVVSVANVIGAMCFGQHFPESSDEMLSLVKNTHEFVETASSGNPLDFFPILRYLPNPALQRFKAFNQRFLWFLQKTVQEHYQDFDKNSVRDITGALFKHSKKGPRASGNLIPQEKIVNLVNDIFGAGFDTVTTAISWSLMYLVTKPEIQRKIQKELDTVIGRERRPRLSDRPQLPYLEAFILETFRHSSFLPFTIPHSTTRDTTLNGFYIPKKCCVFVNQWQVNHDPELWEDPSEFRPERFLTADGTAINKPLSEKMMLFGMGKRRCIGEVLAKWEIFLFLAILLQQLEFSVPPGVKVDLTPIYGLTMKHARCEHVQARLRFSIN", "notes": "purchased BD Biosciences"}}, "key": {"[1]": {"assay": "Human ADME study: quantitative metabolite profiling in urine and feces", "assay_type": "in vivo", "conditions": "for Excretion (% of dose), Total: urine plus feces, pooled excreta n=6", "method": "Average pools across the six subjects were also created by combining equal percentages (of total urine and feces excreted over the time interval) of the individual subject pools. Urine pools were analyzed directly for metabolite profiling (column recovery of a representative sample was measured), whereas feces pools were subjected to extraction. Specifically, to each aliquot of feces homogenate, two volumes of acetonitrile were added. After centrifugation, the pellet was washed further with an additional two volumes of acetonitrile. […] All washes were combined, evaporated under nitrogen, and reconstituted with a solution of 15‐mM ammonium formate (pH 3.5). This feces extract reconstitute was analyzed for metabolite profiling. Combined extraction and reconstitution (overall recovery) and column recovery were measured. […] The HPLC column used was a Phenomenex Kinetex, C18, 250 × 4.6 mm, equipped with a pre‐column of the same type (2.1 × 4.6 mm), which was placed in a column oven at 40°C. […] The HPLC gradient was as follows: initial conditions were 5% mobile phase B for 1 minute, then increased to 20% at 10 minutes post injection where it was held (isocratic) up to 20 minutes. […] The post column flow was directed to the fraction collector operated in a time‐slice mode and containing 96‐well Lumaplates (Perkin Elmer). The plates were dried at room temperature and the radioactivity was measured using a microplate scintillation counter model TopCount NXT (Perkin Elmer) instrument (up to 3 × 100‐minute counting time). […] Metabolites were identified during the same injections using data generated by the high‐resolution mass spectrometer. The molecular ions and key fragments of each drug‐related component were determined. Key fragments for each metabolite were derived from their product ion mass spectra and were used to determine the metabolite structures. Where possible, structural assignments were supported by exact mass measurement, comparison with synthetic standards and/or Hydrogen/Deuterium (H/D) exchange LC‐MS(/MS)."}, "[2]": {"assay": "Human ADME study: quantitative metabolite profiling in plasma", "assay_type": "in vivo", "set-up": "AUC0-48h: concentration or dose not given beside the values", "method": "A plasma pool across the six healthy volunteers included in the study was prepared at the time points of 1 hour, 3 hours, 24 hours, and 48 hours post dose. For each time point, an equal volume of plasma was taken from each subject and combined. Plasma pool samples were processed by protein precipitation with acetonitrile. The protein pellet that resulted from precipitation with acetonitrile was washed further with additional aliquots of acetonitrile. All acetonitrile washes were combined and evaporated under nitrogen. For the 3‐ and 24‐hour plasma pools, the extraction procedure was slightly modified, including precipitation of the plasma proteins by addition of a 1:1 mixture of acetonitrile:methanol, followed by washing of the protein pellet with the same solvent mixture. All extracts were reconstituted with a solution of 15‐mM ammonium formate and acetonitrile (95:5 v/v). Extraction and reconstitution recoveries were measured in all four plasma samples in order to calculate and overall recovery. Quantitative metabolite profiling in plasma was accomplished using a Shimadzu Prominence high‐performance liquid chromatography (HPLC) system (Shimadzu, Columbia, MD, USA), coupled with fraction collection and analysis of total radioactivity in individual fractions using AMS (as described above). A second injection of each sample, conducted immediately after the first, was used to provide HPLC fractions for metabolite identification. The fractions identified as containing radioactivity from the AMS analysis were analyzed by HPLC coupled with high‐resolution mass spectrometry to identify the metabolites. The HPLC‐MS/MS methodology used is described below."}, "[3]": {"system": "CYP enzymes that metabolise ribociclib in HLM (total metabolism; CYP-selective chemical inhibitors)", "assay": "Inhibition of [3H] ribociclib total metabolism in HLM by CYP- and FMO-selective inhibitors", "assay_type": "in vitro ADME", "conditions": "both, human, human liver microsomes, pH 7.4, probe [3H] ribociclib"}, "[4]": {"assay": "Contribution of metabolites to total pharmacological activity in human", "conditions": "considering in vitro measurements and in vivo exposure"}, "[5]": {"substrate": "CN(C)C(=O)c1cc2cnc(Nc3ccc(N4CCNCC4)cn3)nc2n1C1CCCC1", "assay": "Enzyme kinetics with recombinant CYP3A5 and scaling to HLM", "assay_type": "in vitro ADME, human", "conditions": "other: recombinant CYP3A5; 37.0 °C", "method": "(§1) In vitro incubations were carried out in 100‐mM potassium phosphate buffer (pH 7.4) and 5‐mM MgCl2 with a total volume of 200 µL. Substrate and either human liver microsomes (HLM, BD Biosciences, mixed gender pool of n = 50) or recombinant human enzymes (BD Biosciences) were added and pre‐incubated for 3 minutes at 37°C. The reaction was started by addition of a fresh solution of NADPH (1 mmol/L final concentration). The samples were incubated at 37°C with agitation of 500 rpm. For incubations with CYP2A6, CYP2C9, CYP2C18, and CYP4A11, the phosphate buffer was replaced by TRIS buffer (100 mmol/L, pH 7.4) and for flavin‐containing monooxygenases (FMOs), a glycine buffer (50 mM, pH 9.5) was used.\n(§2) The enzymatic reaction was stopped and the protein was precipitated by addition of an equal volume of methanol. After 30 min at −80°C, the samples were centrifuged at 30'000 x g for 15 min. The supernatant was withdrawn. Aliquots were analyzed by LSC and the supernatant was diluted with water to obtain a final solution containing less than 20% of the organic solvent. For samples of low substrate concentration, supernatants were evaporated to dryness under nitrogen, then re‐suspended in water containing less than 20% of methanol. Samples were analyzed by HPLC combined with radiodetection.\n(§3) The relative contribution of CYP enzymes to oxidative hepatic metabolism was determined using their Clint values multiplied by the unbound fraction in microsomes and their abundances in human liver microsomes. ^15 Among the hepatic P450 enzymes, CYP3A4 contributed predominantly (97%) to metabolism in human liver microsomes (Table 1) with negligible fraction metabolized by CYP1A2 (1.1%), CYP2J2 (0.8%), and CYP3A5 (1.2%)."}, "[6]": {"substrate": "CN(C)C(=O)c1cc2cnc(Nc3ccc(N4CCNCC4)cn3)nc2n1C1CCCC1", "assay": "Enzyme kinetics with recombinant CYP1A2 and scaling to HLM", "assay_type": "in vitro ADME, human", "conditions": "other: recombinant CYP1A2; 37.0 °C", "method": "as §1, §2, §3"}, "[7]": {"conditions": "human plasma pools n=6, from metabolite patterns"}}, "data": [{"molecule": "CN(CO)C(=O)c1cc2cnc(Nc3ccc(N4CCNCC4)cn3)nc2n1C1CCCC1", "note": "[M15]", "values": [{"measurement": "Excretion (% of dose), Urine", "setting": "[1]; pooled excreta n=6, from metabolite patterns (radio profiling)", "value": "1.50 % of dose"}, {"measurement": "Excretion (% of dose), Total", "setting": "[1]", "value": "1.50 % of dose"}, {"measurement": "detection in plasma (AMS metabolite profiling)", "setting": "[2]; human plasma", "value": "not observed in plasma"}]}, {"molecule": "CC[C@]1(C)C[C@@H](OC(=O)CSc2nnc(N)[nH]2)[C@]2(C)[C@H](C)CC[C@]3(CCC(=O)[C@H]32)[C@@H](C)[C@@H]1O", "note": "[Azamulin]", "values": [{"measurement": "IC50", "setting": "[3]", "value": 1050, "unit": "nM"}]}, {"molecule": "CC(C)(O)c1ccccc1CC[C@@H](SCC1(CC(=O)O)CC1)c1cccc(/C=C/c2ccc3ccc(Cl)cc3n2)c1", "note": "[Montelukast]", "values": [{"measurement": "IC50", "setting": "[3]", "value": "> 2000", "unit": "nM"}]}, {"molecule": "CN(C)C(=O)c1cc2cnc(Nc3ccc(N4CCN(O)CC4)cn3)nc2n1C1CCCC1", "note": "[M13 (CCI284)]", "values": [{"measurement": "contribution to total pharmacological activity in human", "setting": "[4]", "value": "not to have a relevant contribution to total pharmacological activity"}, {"measurement": "AUC0-48h, % of total [14C]-AUC0-48", "setting": "[2]; [7]", "value": 9.39, "unit": "%"}, {"measurement": "metabolite exposure as % of ribociclib exposure", "setting": "[2]; human plasma, AUC0-48", "value": 21.6, "unit": "%"}]}, {"molecule": "CN(C)C(=O)c1cc2cnc(Nc3ccc(N4CCN(S(=O)(=O)O)CC4)cn3)nc2n1C1CCCC1", "note": "[M8 (CQM386)]", "values": [{"measurement": "Excretion (% of dose), Total", "setting": "[1]", "value": "< 5.21 % of dose"}, {"measurement": "AUC0-48h", "setting": "[2]; [7]", "value": 0.0142, "unit": "µM·h"}, {"measurement": "AUC0-48h, % of total [14C]-AUC0-48", "setting": "[2]; [7]", "value": 0.0297, "unit": "%"}, {"measurement": "Concentration in plasma pool", "setting": "[2]; human, 1 h post dose, pool n=6, from metabolite patterns", "value": 9.50, "unit": "nM"}]}, {"molecule": "B1", "values": [{"measurement": "Km", "setting": "[5]", "value": 23.9, "unit": "µM"}, {"measurement": "kcat", "setting": "[5]", "value": 0.0122, "unit": "s⁻¹"}, {"measurement": "kcat/Km", "setting": "[5]", "value": 517, "unit": "M⁻¹ s⁻¹"}]}, {"molecule": "B2", "values": [{"measurement": "Km", "setting": "[6]", "value": 48, "unit": "µM"}, {"measurement": "kcat", "setting": "[6]", "value": 0.0185, "unit": "s⁻¹"}, {"measurement": "kcat/Km", "setting": "[6]", "value": 383, "unit": "M⁻¹ s⁻¹"}]}]}
